Measurements taken from ChEMBL document CHEMBL1201862, “PubChem BioAssay data set” (2004).
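Following 48 hours of exposure in 96-well plates, responses at five concentrations were used to interpolate endpoints linearly. GI50: concentration for 50% inhibition of growth.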 Activity calls are given as the source filed them. No stated cut-off is given here; in the data, active = GI50 up to about 1.1 µM and inactive = higher.

Tests used:
Assay in all cases: NCI tumour cell line growth inhibition, 48 h
COLO 205 = tested on: COLO 205
OVCAR-4 = tested on: OVCAR-4
OVCAR-5 = tested on: OVCAR-5
786-0 = tested on: 786-0
M14 = tested on: M14
A498 = tested on: A498
SNB-19 = tested on: SNB-19
EKVX = tested on: EKVX
HCC 2998 = tested on: HCC 2998
HOP-62 = tested on: HOP-62
SK-MEL-2 = tested on: SK-MEL-2
OVCAR-3 = tested on: OVCAR-3
SF-268 = tested on: SF-268
CAKI-1 = tested on: CAKI-1
UO-31 = tested on: UO-31
NCI-H460 = tested on: NCI-H460
HCT-116 = tested on: HCT-116
KM12 = tested on: KM12
SF-295 = tested on: SF-295

Compound	GI50 (COLO 205)	GI50 (OVCAR-4)	GI50 (OVCAR-5)	GI50 (786-0)	GI50 (M14)	GI50 (A498)	GI50 (SNB-19)	GI50 (EKVX)	GI50 (HCC 2998)	GI50 (HOP-62)	GI50 (SK-MEL-2)	GI50 (OVCAR-3)	GI50 (SF-268)	GI50 (CAKI-1)	GI50 (UO-31)	GI50 (NCI-H460)	GI50 (HCT-116)	GI50 (KM12)	GI50 (SF-295)
CC1=NN(C(=O)CC(=O)Nc2cccc(Cl)c2)C(=O)C1/N=N/c1ccc(S(N)(=O)=O)cc1 (centres undefined)	> 100 µM (inactive)	> 100 µM (inactive)	> 100 µM (inactive)	> 100 µM (inactive)	> 100 µM (inactive)	> 100 µM (inactive)	> 100 µM (inactive)	> 100 µM (inactive)	> 100 µM (inactive)	> 100 µM (inactive)	> 100 µM (inactive)	> 100 µM (inactive)	> 100 µM (inactive)	> 100 µM (inactive)	> 100 µM (inactive)	> 100 µM (inactive)	> 100 µM (inactive)	> 100 µM (inactive)	> 100 µM (inactive)
O=C(c1ccccc1)c1nnn(Cc2ccccc2Cn2nnc(C(=O)c3ccccc3)c2C(=O)c2ccccc2)c1C(=O)c1ccccc1	50.5 µM (inactive)	> 100 µM (inactive)	> 100 µM (inactive)	> 100 µM (inactive)	> 100 µM (inactive)	> 100 µM (inactive)	> 100 µM (inactive)	47.6 µM (inactive)	> 100 µM (inactive)	> 100 µM (inactive)	> 100 µM (inactive)	> 100 µM (inactive)	> 100 µM (inactive)	> 100 µM (inactive)	> 100 µM (inactive)	> 100 µM (inactive)	> 100 µM (inactive)	> 100 µM (inactive)	> 100 µM (inactive)
COc1ccc(-c2c(C3=NCCCN3)nnn2-c2ccc([N+](=O)[O-])cc2)cc1	> 100 µM (inactive)	> 100 µM (inactive)	> 100 µM (inactive)	> 100 µM (inactive)	> 100 µM (inactive)	> 100 µM (inactive)	> 100 µM (inactive)	> 100 µM (inactive)	> 100 µM (inactive)	> 100 µM (inactive)	> 100 µM (inactive)	> 100 µM (inactive)	> 100 µM (inactive)	> 100 µM (inactive)	> 100 µM (inactive)	> 100 µM (inactive)	> 100 µM (inactive)	> 100 µM (inactive)	> 100 µM (inactive)
CCCCCCC(=O)CC(=O)C(=O)Nc1ccccc1C	> 57.1 µM (inactive)	> 100 µM (inactive)	> 100 µM (inactive)	> 55.5 µM (inactive)	> 100 µM (inactive)	> 100 µM (inactive)	> 100 µM (inactive)	> 100 µM (inactive)	> 100 µM (inactive)	> 100 µM (inactive)	> 100 µM (inactive)	> 100 µM (inactive)	> 65.6 µM (inactive)	> 100 µM (inactive)	> 100 µM (inactive)	> 51.1 µM (inactive)	> 100 µM (inactive)	> 100 µM (inactive)	> 100 µM (inactive)
CC(C)(Oc1ccc(/C=C/C(=O)c2ccccc2)cc1)C(=O)Nc1c(Cl)cccc1Cl	> 10 µM (inactive)	> 10 µM (inactive)	> 10 µM (inactive)	> 10 µM (inactive)	> 10 µM (inactive)	0.524 µM (active)	> 10 µM (inactive)	> 10 µM (inactive)	> 10 µM (inactive)	> 10 µM (inactive)	> 10 µM (inactive)	6.95 µM (inactive)	> 10 µM (inactive)	> 10 µM (inactive)	> 10 µM (inactive)	> 10 µM (inactive)	> 10 µM (inactive)	4.07 µM (inactive)	> 10 µM (inactive)
Cc1nc(Nc2ccc(Cl)cc2)sc1C(=O)NNC(=O)C(=O)NN	20.3 µM (inactive)	18.1 µM (inactive)	17 µM (inactive)	17.3 µM (inactive)	18.6 µM (inactive)	15.7 µM (inactive)	21.3 µM (inactive)	10.4 µM (inactive)	20 µM (inactive)	21.5 µM (inactive)	17.6 µM (inactive)	21.5 µM (inactive)	27.8 µM (inactive)	23.3 µM (inactive)	16.6 µM (inactive)	19.7 µM (inactive)	19.6 µM (inactive)	18.3 µM (inactive)	18.2 µM (inactive)
